Experimental data as given in patent US12152038B2, “Vasopressin receptor antagonists and products and methods related thereto” (Neumora Therapeutics, Inc., priority 2017, dated 2024).
Like-named read-outs stand apart in the source and are kept apart here.

Target: T1, MDR1 (P-glycoprotein) (Homo sapiens, UniProt P08183)
T1 construct: host or cells: MDCK (MDR1-MDCK; wild-type MDCK as comparator)
Test: MDR1-MDCK permeability and efflux assay (Papp, efflux ratio, effective efflux ratio)
Type: in vitro ADME
Settings: dog; for Papp A→B at 1 h, 10 μM: pH 7.4, read-out: Papp AB MDR1
How it was run: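 Confluent WT or MDR1-MDCK monolayers (3-day culture) dosed with 10 μM compound, 0.1% DMSO, in HBSS/25 mM HEPES pH 7.4, A>B and B>A, 1 h at 37 °C; LC-MS/MS quantitation. Papp from acceptor/donor ratio; efflux ratio = Papp B>A/A>B; EER = ER(MDR1)/ER(WT).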

[1] = MDCK-MDR1, pH 7.4, ER(MDR1-MDCK)/ER(wild-type MDCK), read-out: EER (Effective Efflux Ratio)
[2] = MDCK-MDR1, pH 7.4, Papp B>A/Papp A>B, MDR1-MDCK cells, read-out: ER MDR1 (Efflux Ratio)

T1 sequence (P08183 whole entry): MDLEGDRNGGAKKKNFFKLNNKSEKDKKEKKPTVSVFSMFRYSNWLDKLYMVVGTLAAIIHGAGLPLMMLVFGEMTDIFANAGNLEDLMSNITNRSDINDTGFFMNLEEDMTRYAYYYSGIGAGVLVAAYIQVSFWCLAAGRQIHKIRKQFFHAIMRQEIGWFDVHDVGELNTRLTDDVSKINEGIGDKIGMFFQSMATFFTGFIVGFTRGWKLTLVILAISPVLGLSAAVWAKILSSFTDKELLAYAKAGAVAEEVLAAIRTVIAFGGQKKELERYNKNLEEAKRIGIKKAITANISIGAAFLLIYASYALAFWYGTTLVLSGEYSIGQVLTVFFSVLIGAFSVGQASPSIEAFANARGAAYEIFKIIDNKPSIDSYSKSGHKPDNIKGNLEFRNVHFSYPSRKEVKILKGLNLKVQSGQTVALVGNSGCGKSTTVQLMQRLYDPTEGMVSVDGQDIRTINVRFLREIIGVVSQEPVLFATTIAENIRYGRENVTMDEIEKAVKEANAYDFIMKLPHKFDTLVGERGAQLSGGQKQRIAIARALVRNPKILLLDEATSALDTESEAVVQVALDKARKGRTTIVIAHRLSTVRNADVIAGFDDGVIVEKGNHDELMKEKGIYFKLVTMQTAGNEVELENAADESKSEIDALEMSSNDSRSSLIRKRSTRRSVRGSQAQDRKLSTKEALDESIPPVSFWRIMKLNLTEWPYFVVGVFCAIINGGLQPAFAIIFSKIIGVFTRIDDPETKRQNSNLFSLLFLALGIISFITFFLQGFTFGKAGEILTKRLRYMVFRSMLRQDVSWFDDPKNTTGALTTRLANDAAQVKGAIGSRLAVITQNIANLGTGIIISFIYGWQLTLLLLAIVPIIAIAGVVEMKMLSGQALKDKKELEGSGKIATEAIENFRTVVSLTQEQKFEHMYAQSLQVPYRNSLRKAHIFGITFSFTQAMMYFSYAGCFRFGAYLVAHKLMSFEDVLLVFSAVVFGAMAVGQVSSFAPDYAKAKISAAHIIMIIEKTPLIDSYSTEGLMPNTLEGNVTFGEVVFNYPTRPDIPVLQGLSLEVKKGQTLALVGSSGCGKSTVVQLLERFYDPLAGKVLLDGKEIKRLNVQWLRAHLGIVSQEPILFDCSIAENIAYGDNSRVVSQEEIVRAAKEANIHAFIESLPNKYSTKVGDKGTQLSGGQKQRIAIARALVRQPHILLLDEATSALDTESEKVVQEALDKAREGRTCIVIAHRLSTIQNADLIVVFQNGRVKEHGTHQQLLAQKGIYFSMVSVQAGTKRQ

Row | Compound | efflux ratio at 1 h, 10 μM [1] | efflux ratio at 1 h, 10 μM [2] | Papp A→B at 1 h, 10 μM (MDR1-MDCK cells) [×10⁻⁶ cm/s]
1 | O=C(N1CC2(C1)CN(c1cccnc1)C2)N1CCOc2cc(Cl)ccc21 [1-72] | 1 to 2 | < 1 | > 20
2 | CC1COc2cc(Cl)ccc2N1C(=O)N1CC2(C1)CN(c1nn(C)c3ncccc13)C2 (single isomer, unassigned) [20-15-B] | 1 to 2 | < 1 | > 20
3 | COc1ccc2c(c1)OCC(C)N2C(=O)N1CC2(C1)CN(c1ccc(F)cn1)C2 (single isomer, unassigned) [1-59-B] | 1 to 2 | 1 to 2 | > 20
4 | O=C(N1CC2(C1)CN(c1cccnn1)C2)N1CCOc2cc(Cl)ccc21 [1-71] | > 3 | 1 to 2 | > 20
5 | Cc1cncc(N2CC3(CN(C(=O)N4CCOc5cc(Cl)ccc54)C3)C2)n1 [1-22] | 1 to 2 | 1 to 2 | > 20
6 | O=C(N1CC2(C1)CN(c1ccc(F)cn1)C2)N1CCOc2cc(F)ccc21 [1-64] | 1 to 2 | 1 to 2 | > 20
7 | CC1COc2cc(Cl)ccc2N1C(=O)N1CC2(C1)CN(c1ncc(F)cn1)C2 (single isomer, unassigned) [18-2-B] | < 1 | < 1 | > 20
8 | CC1COc2cc(Cl)ccc2N1C(=O)N1CC2(C1)CN(c1noc3ccccc13)C2 (stereo not drawn) [21-1, (6-(benzo[d]isoxazol-3-yl)-2,6-diazaspiro[3.3]heptan-2-yl)(7-chloro-3-methyl-2,3-dihydro-4H-benzo[b][1,4]oxazin-4-yl)methanone] | 2 to 3 | 1 to 2 | 7 to 10
9 | O=C(N1CC2(C1)CN(c1cnc(F)cn1)C2)N1CCOc2cc(Cl)ccc21 [1-18] | < 1 | < 1 | > 20
10 | O=C(N1CC2(C1)CN(c1cc(F)ccn1)C2)N1CCOc2cc(Cl)ccc21 [1-70] | < 1 | 1 to 2 | > 20
11 | CC1COc2cc(Cl)ccc2N1C(=O)N1CC2(C1)CN(c1ncccc1C#N)C2 (stereo not drawn) [21-2] | 1 to 2 | 1 to 2 | > 20
12 | Cc1cnc(N2CC3(CN(C(=O)N4c5ccc(Cl)cc5OCC4C)C3)C2)nc1 (single isomer, unassigned) [20-13-B] | 1 to 2 | 1 to 2 | > 20
13 | CC1COc2cc(Cl)ccc2N1C(=O)N1CC2(C1)CN(c1nccc(C(F)(F)F)n1)C2 (stereo not drawn) [21-10] | 1 to 2 | 1 to 2 | 10 to 20

The remaining lines, values ahead:

Row | efflux ratio at 1 h, 10 μM [1] | efflux ratio at 1 h, 10 μM [2] | Papp A→B at 1 h, 10 μM (MDR1-MDCK cells) [×10⁻⁶ cm/s] | Compound
14 | < 1 | < 1 | > 20 | CC1COc2cc(Cl)ccc2N1C(=O)N1CC2(C1)CN(c1ccccn1)C2 (stereo not drawn) [1-60]
15 | 1 to 2 | 1 to 2 | > 20 | Cc1cncc(N2CC3(CN(C(=O)N4c5ccc(Cl)cc5OCC4C)C3)C2)n1 (stereo not drawn) [21-3]
16 | 1 to 2 | < 1 | > 20 | CC1COc2cc(Cl)ccc2N1C(=O)N1CC2(C1)CN(c1ccccn1)C2 (single isomer, unassigned) [1-60-B]
17 | > 3 | > 3 | > 20 | Cc1cnnc(N2CC3(CN(C(=O)N4c5ccc(Cl)cc5OCC4C)C3)C2)c1 (stereo not drawn) [21-4]
18 | < 1 | 1 to 2 | > 20 | CC1COc2cc(Cl)ccc2N1C(=O)N1CC2(C1)CN(c1ncncc1F)C2 (stereo not drawn) [21-5]
19 | 1 to 2 | 1 to 2 | > 20 | CC1COc2cc(Cl)ccc2N1C(=O)N1CC2(C1)CN(c1cnccn1)C2 (single isomer, unassigned) [1-58-B]
20 | 2 to 3 | 1 to 2 | > 20 | Cc1nccc(N2CC3(CN(C(=O)N4c5ccc(Cl)cc5OCC4C)C3)C2)n1 (stereo not drawn) [21-8]
21 | 2 to 3 | < 1 | > 20 | CC1COc2cc(Cl)ccc2N1C(=O)N1CC2(C1)CN(c1ccncn1)C2 (stereo not drawn) [21-6]
22 | < 1 | 1 to 2 | > 20 | CC1COc2cc(F)ccc2N1C(=O)N1CC2(C1)CN(c1cnccn1)C2 (single isomer, unassigned) [1-65-B]
